This is an account of results in patent US20220062218A1, “COMPOSITIONS AND METHODS FOR TREATING DIABETES” (ENZYCHEM LIFESCIENCES, priority 2019, published 2022).

The subject of this assay is clathrin- or caveolin-silenced INS-1 cells. Kind of assay: Cell apoptosis and ROS generation in clathrin or caveolin siRNA-transfected cells treated with STZ. The class given is cell-based, rat. On the procedure: GLUT2-silenced cells were prepared to clarify the role of GLUT2 in STZ-treated cells. INS-1 cells were transfected with GLUT2 siRNA to determine whether GLUT2 expression is related to STZ-induced cell apoptosis and ROS generation.
Apoptosis of pancreatic beta cells, intracellular ROS generation and glucose intake was analyzed by flow cytometry using GLUT2 siRNA transfected cells (FIGS. 6-A to 6-C). The effect of PLAG on (D) cell apoptosis and (E) ROS generation in Endocytosis-related protein, clathrin or caveolin siRNA-transfected cells was analyzed (FIG. 6D and 6-E). Data are presented as mean ±SD. **P<0.005, ***P<0.001 vs. control, ##P<0.005, #IIIIP<0.001 vs. STZ group. N.S.: No significance. Transfection with siRNAs was performed using the HiPerFect reagent (Qiagen, Hilden, Germany), according to the manufacturer's protocol. Specific siRNAs directed against GLUT2, clathrin, and caveolin were obtained from Santa Cruz Biotechnology (Dallas, Tex., USA).

On to `CCCCC/C=C\C/C=C\CCCCCCCC(=O)OC(COC(C)=O)COC(=O)CCCCCCCCCCCCCCC` (racemic) [PLAG, 1-palmitoyl-2-linoleoyl-3-acetyl-rac-glycerol], for which the “apoptosis or ROS generation in clathrin- or caveolin-silenced cells” value is reported as “did not influence apoptosis or ROS generation”.
